Read-outs that look alike come from different tables or passages of the source. Where no end group is shown, it is not given here.

On the set-up of assay [1]: method as in PMID 20454616, PMID 21804199, PMID 23355413, PMID 28341636. Conditions: cited from earlier work.
The target of assay [2] is PAF receptor (Oryctolagus cuniculus, UniProt G1TEI7). Briefly: [3H]‐PAF receptor binding to rabbit platelet membranes. Conditions: read-out: [3H]‐PAF receptor binding inhibition constant (Ki, nM; Mean ± SEM). The text has this: (§1) FIGURE 5 Pharmacological profile of PAR receptor binding to platelet membranes. Figure 5A depicts the concentration‐dependent inhibition by unlabeled PAF receptor antagonists of different affinities for [^3H]‐PAF binding to rabbit platelet membranes in vitro. Figure 5B illustrates the correlation between the pharmacological profile of PAF receptor antagonists competing for [^3H]‐PAF binding to rabbit and human platelet membranes.
PAF receptor (Oryctolagus cuniculus, UniProt G1TEI7), sequence (G1TEI7 1-342): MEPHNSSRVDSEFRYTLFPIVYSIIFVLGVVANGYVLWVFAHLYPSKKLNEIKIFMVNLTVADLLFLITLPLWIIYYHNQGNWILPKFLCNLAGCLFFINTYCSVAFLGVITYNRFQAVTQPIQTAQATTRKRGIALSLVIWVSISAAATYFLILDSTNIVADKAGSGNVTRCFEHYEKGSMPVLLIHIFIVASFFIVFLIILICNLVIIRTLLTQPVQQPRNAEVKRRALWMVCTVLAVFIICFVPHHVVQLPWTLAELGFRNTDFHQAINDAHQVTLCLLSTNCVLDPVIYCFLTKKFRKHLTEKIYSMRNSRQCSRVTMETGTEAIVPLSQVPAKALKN

Assay [3] deals with T1, PAF receptor (Homo sapiens, UniProt P25105).
T1 construct: from tissue; host or cells: human platelet membranes
T1 sequence (P25105 whole entry): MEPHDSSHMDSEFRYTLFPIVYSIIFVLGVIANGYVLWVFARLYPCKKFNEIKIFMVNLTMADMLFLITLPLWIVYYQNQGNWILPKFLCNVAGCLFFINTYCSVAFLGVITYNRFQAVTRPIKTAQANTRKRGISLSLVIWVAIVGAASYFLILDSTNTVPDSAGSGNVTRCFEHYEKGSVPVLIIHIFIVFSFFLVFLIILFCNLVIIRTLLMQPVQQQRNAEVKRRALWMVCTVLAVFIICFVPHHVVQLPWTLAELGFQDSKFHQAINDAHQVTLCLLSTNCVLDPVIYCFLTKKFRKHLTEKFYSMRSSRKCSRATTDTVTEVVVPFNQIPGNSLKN
Briefly: [3H]‐PAF binding to human platelet membranes. An excerpt:
FIGURE 5 Pharmacological profile of PAR receptor binding to platelet membranes.

A further assay has as its system rod outer segments. Also on record: method as in PMID 1427144. Conditions: lithium‐ and light‐induced retinal degenerations animal models; cited from earlier work.
Another assay concerns animals. On the set-up: method as in PMID 7859817. Conditions: intravitreally injected PAF, pretreatment; cited from earlier work.
Assay [4] deals with patients. On the set-up: method as in PMID 31816871. Conditions: cited from earlier work.
The next assay has as its system naïve mice. On the set-up: method as in PMID 15326102, PMID 20961214, PMID 24754407, PMID 2891830, PMID 8529415. Conditions: cited from earlier work.
Assay [5] concerns human conjunctival epithelial cells (HCECs). On the set-up: method as in PMID 19513187. Conditions: cited from earlier work.
Assay [6] shares this test system. Also on record: method as in PMID 19513187. Conditions: cited from earlier work. This is another data set of the same source.
For assay [7], the target named is T1, PAF receptor. Briefly: [3H]‐WEB‐2086 binding to human platelet membranes. Conditions: read-out: [3H]‐WEB‐2086 binding inhibition constant (Ki, nM; Mean ± SEM).
The subject of assay [8] is retinal capillary endothelial cells. Also on record: method as in PMID 12356842. Conditions: rat pups exposed to high levels of oxygen (model of ROP), prior treatment; cited from earlier work.
Assay [9] has as its system human conjunctival epithelial cells (HCECs). Also on record: method as in PMID 9261768. Conditions: cited from earlier work; for EC50: read-out: EC50 for increase of [3H]‐IPs.
For the next assay, the system named is photoreceptors. Also on record: method as in PMID 15979612. Conditions: retinal ischemia / oxidative stress; cited from earlier work.
Another assay has as its system human chronic diseases. On the set-up: method as in PMID 31816871. Conditions: ulcerative colitis, myocardiac infarction, organ failure associated with pancreatitis, cognitive decline after bypass surgery, psoriasis; cited from earlier work.
For another assay, the system named is HCEPI/CEPI‐17‐CL4 cells. On the set-up: method as in PMID 9856766, PMID 9559896, PMID 9863665, PMID 10235542, PMID 20187806. Conditions: cited from earlier work.
The test system of another assay is HIS and PAF receptors. On the set-up: method as in PMID 1793070. Conditions: cited from earlier work.
In assay [10] the test system is patients suffering from rhinitis. Also on record: method as in PMID 23459334, PMID 31470575. Conditions: oral, 4‐week period of dosing; cited from earlier work.
Details of assay [11]: method as in PMID 31816871. Conditions: cited from earlier work.
The next assay relates to asthma patients. Also on record: method as in PMID 31816871. Conditions: cited from earlier work.
On the set-up of assay [12]: method as in PMID 31816871. Conditions: cited from earlier work. The source holds these as a separate data set.
Details of assay [13]: method as in PMID 31816871. Conditions: cited from earlier work. The source holds these as a separate data set.
Another assay has as its system rats. On the set-up: method as in PMID 9845270. Conditions: streptozotocin‐induced diabetes in rats; cited from earlier work.
Assay [14] relates to laser‐induced choroidal neovascularization (CNV) in mice. On the set-up: method as in PMID 23826375. Conditions: cited from earlier work.
Assay [15] concerns patients. Also on record: method as in PMID 31816871. Conditions: cited from earlier work. The source holds these as a separate data set.
The target of assay [16] is PAF receptors in the bovine and rabbit cornea. Also on record: method as in PMID 10067986. Conditions: cited from earlier work.
The subject of assay [17] is PAF receptors on rabbit and human platelets. Briefly: PAF receptor binding on platelets. Conditions: Figure 5.
Description: as §1

Setting [18] is: human platelet membranes, read-out: [3H]‐PAF receptor binding inhibition constant (Ki, nM; Mean ± SEM).

As for `C#Cc1cccc2c1c(C(=O)c1ccc(Cn3c(C)nc4cnccc43)c(F)c1)cn2C(=O)N(C)C` [ABT‐491], in assay [1], the “Pain induced by ATP‐triggered PAF release” value is listed as “blocked”.
Consider `CN(C)C(=O)n1cc(C(=O)c2ccn3c2CS[C@@H]3c2cccnc2)c2ccc(-c3ccc(F)cc3)cc21` [A‐85783], for which the Ki on PAF receptor [2] stood at 6.9 ± 1 nM.
Compound `C#Cc1cccc2c1c(C(=O)c1ccc(Cn3c(C)nc4cnccc43)c(F)c1)cn2C(=O)N(C)C` [A‐137491] gave an inhibition constant Ki at PAF receptor [3] of 3.9 ± 0.5 nM.
Regarding `COc1ccc(NC(=S)N2CCc3c(sc4c3C(c3ccccc3Cl)=NCc3nnc(C)n3-4)C2)cc1` [BN‐50730 (Rocipafant) LAU‐8080, Rocipafant], the Ki on PAF receptor [2] worked out at 44.8 ± 7.2 nM.
Take `COc1ccc(SCC(=S)N2CCc3c(sc4c3C(c3ccccc3Cl)=NCc3nnc(C)n3-4)C2)cc1OC` [BN‐50739]: the Ki at PAF receptor [3] (setting [18]) came to 53.4 ± 1.9 nM; at PAF receptor [2] it was 28.6 ± 8.4 nM.
As to `CC1C(=O)OC2C(O)C34C5CC(C(C)(C)C)C36C(OC(=O)C6O)OC4(C(=O)O5)C12O` (stereo not drawn) [BN‐52021(Ginkolide B), Ginkgolide B], the “Damage to rod outer segments” value in the assay with rod outer segments is listed as “effectively suppressed”. In addition, in the assay on animals, the “PAF‐induced disruption of choroidal endothelial cell layer and polymorphonuclear leukocyte infiltration” value was “mostly abolished”. In addition, in the assay on patients [4], the “PAF levels in patients” value is on record as “reduction”. For the same compound, the “PAF‐induced ocular surface neovascularization” value in the assay on naïve mice is “inhibited”.
For `CCCCCCCCCCCCCCCCCCNC(=O)OCC(COP(=O)([O-])OCC[n+]1ccsc1)OC` (stereo not drawn) [CV‐3988], the “Effect on PAF‐induced synthesis and secretion of IL‐6, IL‐8 and GM‐CSF” value in assay [5] is reported as “curtailed”. In assay [6], the “Antagonism of PAF‐induced [Ca2+]i mobilization” value is “antagonized”. Also, the Ki at PAF receptor [3] (setting [18]) was determined as 3090 ± 889 nM; at PAF receptor [7], 3780 ± 759 nM; at PAF receptor [2] it was 2900 ± 240 nM. The “Loss of retinal capillary endothelial cells” value in assay [8] is on record as “reduced”. Also, in the assay on naïve mice, the “PAF‐induced ocular surface neovascularization” value is “inhibited”.
For the compound `Cc1nnc2n1-c1sc3c(c1C(c1ccccc1Cl)=N[C@H]2C)CCN(C(=O)C1CC1)C3` [E‐6123], the Ki at PAF receptor [2] stood at 9.3 ± 0.3 nM.
For the compound `NCCc1c[nH]cn1` [HIS, histamine], the EC50 in assay [9] is 3100 nM.
`CC1=C(C(=O)OCCOc2ccc(Cl)c(Cl)c2)C(C)C(C(=O)OC(CN2CCOCC2)CN2CCOCC2)=C(C)N1` (stereo not drawn) [LAU0901]: in the assay on photoreceptors, the “Protection of photoreceptors and their terminals” value is recorded as “efficaciously protected”.
`CCCCC/C=C\C\C=C/C=C/C=C/[C@@H](SC[C@H](NC(=O)CC[C@H](N)C(=O)O)C(=O)NCC(=O)O)[C@@H](O)CCCC(=O)O` [LTC4]: the EC50 in assay [9] is 300 nM.
As for `CCOC(=O)[C@H](CC(C)C)N(C)S(=O)(=O)c1ccc(Cn2c(C)nc3cnccc32)cc1` [Lexipafant], the “Efficacy in multiple human chronic diseases” value with human chronic diseases is on record as “lack of efficacy”.
For `CCOC(=O)C1=C(c2ccc(-n3c(C)nc4cnccc43)cc2)NC(C)=C(C(=O)Nc2ccccn2)[C@H]1c1ccccc1Cl` [Modipafant], the “Efficacy in multiple human chronic diseases” value with human chronic diseases is given as “lack of efficacy”.
With `CCOC[C@H](CC(C)C)N(C)S(=O)(=O)c1ccc(Cn2c(C)nc3cnccc32)cc1` [Nupafant], the Ki at PAF receptor [2] is 1.7 ± 0.6 nM.
For the compound `CCCCCCCCOc1ccccc1C(=O)Nc1ccc(C(=O)OCC[N+](C)(CC)CC)cc1` [Octylonium], the Ki on PAF receptor [3] (setting [18]) stood at 4335 ± 17.8 nM.
Consider `COC(=O)C1=C(C)NC(C)=C(C(=O)OCCSc2ccccc2)C1C` (stereo not drawn) [PCA‐4248], for which the “Effect on PAF‐induced synthesis and secretion of IL‐6, IL‐8 and GM‐CSF” value in assay [5] is reported as “curtailed”. Also, the “Antagonism of PAF‐induced [Ca2+]i mobilization” value in [6] is on record as “antagonized”. The Ki on PAF receptor [3] (setting [18]) was determined as 634 nM. The “Effect on PAF‐induced IPs production” value with HCEPI/CEPI‐17‐CL4 cells is “blocked”.
In the case of `CCCCC[C@H](O)/C=C/[C@@H]1[C@@H](C/C=C\CCCC(=O)O)[C@@H](O)C[C@H]1O` [PGF2α], the “Stimulation of [3H]‐IPs (in words)” value in [9] is “inactive”.
Turning to `CCCCCCCCCCCCCCCCCCNC(=O)OC[C@@H](COCCCC[n+]1ccsc1)OC(=O)OC` [RO‐19‐3704], on PAF receptor [2], the Ki stood at 201 ± 22.5 nM.
For the compound `Cc1cncc(CN2CCC(=C3c4ccc(Cl)cc4CCc4cccnc43)CC2)c1` [SCH‐37370 (Rupatadine), Rupatadine], the “Affinities and potencies at both HIS and PAF receptors (in words)” value in the assay on HIS and PAF receptors is given as “micromolar”. Also, in assay [10], the “Nasal discharge, sneezing and nasal itching” value is “significantly reduced”; the Ocular itching entry is reported as “significantly reduced”. Moreover, the “Effects in chronic idiopathic urticaria and allergic rhino‐conjunctivitis” value in [11] is given as “beneficial effects”.
In the case of `C[C@@H]1S[C@H](c2cccnc2)N(C)C1=O` [SM‐10661], the Ki on PAF receptor [3] (setting [18]) was found to be 22800 nM; at PAF receptor [7] it was 9850 ± 1350 nM; at PAF receptor [2] it was 7490 ± 875 nM.
Turning to `CC(C)c1cc(C(C)C)c(-c2csc(N(CCN(C)C)Cc3cccnc3)n2)c(C(C)C)c1` [SR27417A], in the assay on asthma patients, the “Efficacy in asthma patients” value was “modest efficacy”. Further, the “Efficacy in multiple human chronic diseases” value in the assay with human chronic diseases is on record as “lack of efficacy”.
In the case of `CCC[n+]1cc(Br)cc(C(=O)N(CCC(=O)NCCOC(=O)N2CCc3ccccc3C2)c2ccccc2)c1.O=[N+]([O-])[O-]` [TCV‐309], the Ki on PAF receptor [3] (setting [18]) was found to be 9.4 ± 3.1 nM; at PAF receptor [2], 5.5 ± 0.2 nM. Further, the “Organ dysfunction and morbidity linked to septic shock” value in assay [12] was “reduction”.
For `Cc1nnc2n1-c1sc(CCC(=O)N3CCOCC3)cc1C(c1ccccc1Cl)=NC2` [WEB‐2086], in [13], the “Erythema induced by UV‐light” value is on record as “reduction”. The “Retinal blood vessel density” value in the assay with rats is recorded as “helped preserve”. Also, the “Choroidal neovascularization and subretinal fibrosis induced by PAF” value in assay [14] is “inhibited”. In addition, in assay [14] (mice, prior treatment, intraperitoneal and intravitreal administration), the “Fluoresceine leakage (retinal vascular leakage) after laser‐induced CNV” value is “blockade”.
In the case of `CC(C)(CCN1CCN(C(=O)C2CSC(c3cccnc3)N2)CC1)c1ccccc1` (stereo not drawn) [YM‐264], the Ki was 7.3 ± 1.8 nM on PAF receptor [3] (setting [18]) and 5.1 ± 0.6 nM at PAF receptor [2].
Take `Cc1nnc2n1-c1sc(CCc3ccc(CC(C)C)cc3)cc1C(c1ccccc1Cl)=NC2C` (stereo not drawn) [Y‐24180]: in the assay on patients [15], the Bronchial hyperresponsiveness result was “improvement”.
As for `Clc1ccc2c(c1)CCc1cccnc1C2=C1CCNCC1` [des‐loratadine], in [10], the “Nasal discharge, sneezing and nasal itching” value was “significantly reduced”; the Ocular itching result is recorded as “significantly reduced”.
On to Hexanolamine, for which the Ki on PAF receptor [2] came to 164 ± 15.4 nM.
Consider “bradykinin (RPPGFSPFR; Bradykinin; UniProt P01042 381-389, looked up) [BK, mast cell mediator]”, for which the EC50 in [9] is 0.83 nM.
Turning to “endothelin (CSCSSLMDKECVYFCHLDIIW; ends and bridges not checked; cysteine pairing not given here; UniProt P05305 53-73, looked up)”, in assay [9], the “Stimulation of [3H]‐IPs (in words)” value was “inactive”.
As to platelet‐activating factor [PAF], the values for the EC50 in assay [9] and in assay [6] (read-out: EC50 for [Ca2+]i mobilization) were 4.5 nM and 0.81 nM, respectively. Moreover, the Ki at PAF receptor [3] (setting [18]) was found to be 3.1 ± 0.6 nM; on PAF receptor [7], 26.5 ± 2 nM; on PAF receptor [2], 3.7 ± 0.4 nM. Further, the Kd in [16] was 0.8 to 4.3 nM; in [17], 0.5 nM.
For “substance P (RPKPQQFFGLM; ends and bridges not checked; UniProt P20366 58-68, looked up)”, the “Stimulation of [3H]‐IPs (in words)” value in [9] is “inactive”.

The values above are taken from article PMC10084252, “PAF‐induced inflammatory and immuno‐allergic ophthalmic diseases and their mitigation with PAF receptor antagonists: Cell and nuclear effects” (Biofactors (Oxford, England), 2022).
